Source: patent publication USRE35224E (The Board of Trustees of the Leland Stanford Junior …, priority 1993, dated 1996)
Entries after “also recorded” stand apart in the source; their conditions may differ. Where two headings read alike, the source gives them in different places.

Key:
natural suppressor cells [1] = target: T1, natural suppressor cells (Mus musculus, UniProt P97292); experiment: Effects of histamine derivatives on cAMP accumulation in natural suppressor (NS) cells; assay type: cell-based, mouse (BALB/c); conditions: for Relative potency: histamine = 1.0; for Activity / potency on NS cells (in words): cAMP accumulation, H2 activity
T1 construct: cAMP accumulation
T1 sequence (P97292 whole entry): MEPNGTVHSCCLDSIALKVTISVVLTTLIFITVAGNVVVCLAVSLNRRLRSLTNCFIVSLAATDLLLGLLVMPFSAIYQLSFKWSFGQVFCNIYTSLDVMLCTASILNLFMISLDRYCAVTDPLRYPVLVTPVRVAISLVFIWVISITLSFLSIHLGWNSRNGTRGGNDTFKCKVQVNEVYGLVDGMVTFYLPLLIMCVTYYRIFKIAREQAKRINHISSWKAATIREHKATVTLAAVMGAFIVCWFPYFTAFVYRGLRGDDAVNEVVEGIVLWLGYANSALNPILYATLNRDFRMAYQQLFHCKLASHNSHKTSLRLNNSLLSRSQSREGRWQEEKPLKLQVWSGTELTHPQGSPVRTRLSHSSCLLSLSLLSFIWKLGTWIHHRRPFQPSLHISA
Description: NS cells were obtained and cultured as follows: four-to six-month old BALB/c mice were anesthetized with pentobarbital and all major lymphoid organs, including all major lymph nodes, the spleen, and the thymus, were irradiated as described by Slavin et al., Science (1976) 193:1252. The skull, lungs, and hind legs were shielded with lead. The mice were given 200 rad per day, 5 times per week, to a total dose of 3400 rad. Irradiation was delivered from a single 250 kV (15A) source (Philips Medical Systems, Inc., Shelton, CT). The mice were killed between 5 and 15 days after completion of the TLI. Spleens were removed aseptically and single cell suspensions were prepared by gently pressing the spleen fragments through a nylon fiber mesh (Tetko, Inc., Elmsford, NY). These spleen cells were fed daily with tissue culture medium containing RPMI 1640, 10% FCS, 2 mM glutamine, 10% CAS and 5×10^-5 M 2-mercaptoethanol and were later cloned by limiting dilutior, The clones were maintained in RPMI 1640 medium with 10% PCS and 10% CAS.
NS cells were centrifuged and resuspended at b 1×10^6 /ml in PBS and incubated at 37° C. for 10 min with 10 mM IBMX at a final concentration at 20 μM. Alternatively the cells were resuspended in 5 mM HEPES and 1 mM MgSO4 and after five minutes were disrupted in a Dounce homogenizer. Broken cells were centrifuged at 20,000 g […] for thirty minutes and supernatant was discarded. The pellet was resuspended in Tris (pH 7.5), 5 mM HEPES and 1 mM MgSO4 and incubated with IBMX.
Cold TCA (100%) was added to a final concentration of 8% and the tubes were stored in ice. Samples were extracted 3 times with 3 volumes of ether. The ether was evaporated at 40° C. in a water bath for approximately 45 min. Acetylation of both experimental samples and cAMP standards were performed by addition of 10 μl of a mixture of triethylamine and acetic anhydride (2:1). […] The radio-immunoassay was performed as reported previously by Khan et al., J. Clin. Invest. (1985) 75:1578.

natural suppressor cells [2] = target: T1, natural suppressor cells; experiment: Blocking histamine effects in natural suppressor cells (H2 antagonism); assay type: cell-based, mouse (BALB/c); conditions: for Blockade of histamine mediated accumulation of cAMP: NS cells; for Antagonism by cimetidine (H2 antagonist) of cAMP accumulation: cimetidine 10^-5 M, compounds 6-8 at 10^-4 M, 9 at 10^-7 M
Protocol: This assay was carried out in the same fashion as already described for the derivatives except that ED-90 concentration of the test compound was chosen. Cimetidine was added at the same time in concentrations ranging from 10^-4 to 10^-8 M. Alternatively, 10^-6 M cimetidine was added to 10^-3 -10^-8 M concentration of agonists.

natural suppressor cells [3] = experiment: Mixed leukocyte reaction (MLR) suppressor assay; assay type: cell-based, mouse (BALB/c, C57 BL/6); conditions: for Effect of antagonist on derivative-enhanced suppression in MLR: with compound 10, cimetidine 10^-5 M or mepyramine 10^-6 M, four hours at 37° C
Protocol: Responder (BALB/c) and stimulator (C57 BL/6) spleen cells (5×10^5each) were incubated with graded numbers of NS cells in 0.3 ml/well in 96-well flat bottomed microculture plates (Costar, Data Packaging, Cambridge, MA). The culture medium was supplemented with 100 U/ml penicillin, 100 ug/ml of streptomycin (both GIBCO, Grand Island, NY), and 10=pooled human serum (VSP human serum, Biocell Laboratories, Carson CA). Co-cultured cells and stimulator cells were given 3300 rad before incubation. Cultures were maintained at 37° C. in 5% CO2 for 5 or 6 days. Eighteen hr before termination, 1 μCi of ^3 H!-thymidine (specific activity […]) (New England Nuclear, Boston, MA) was added to each culture. Cells were harvested as described above. The data were expressed as the arithmetic mean of triplicate cultures. Suppression was calculated as follows: percent suppression=1-(CPM with co-cultured cells)/(CPM without co-cultured cells)×100. […] To block the effects of agonists, […] cimetidine was used as an H2 antagonist and 10^-6 M mepyramine was used as an H1 antagonist.
CO-cultured and stimulator cells were given 3300 rad in vitro just prior to incubation. […] See, Khan et al., J. Immunol. (1985) 134:4100. […] To determine the role of H1 and H2 receptors in the modification of NS cell function, the incubation with compound 10 was carried out in the presence of either cimetidine (10^-5 M) or mepyramine (10^-6 M) for four hours at 37° C. The cells were then washed extensively and later added to co-cultures with responder and stimulator cells. […] Similar experiments were carried out with each of the indicated agonists (Table 5).

[4] = target: T2, guinea pig myocardial adenylate cyclase (Cavia porcellus, UniProt P47747); experiment: Guinea pig myocardial adenylate cyclase assay; assay type: biochemical; conditions: for Activity on guinea pig myocardium (in words): adenylate cyclase
T2 construct: histamine-stimulated adenylate cyclase with GPP(NH)P
T2 sequence (P47747 whole entry): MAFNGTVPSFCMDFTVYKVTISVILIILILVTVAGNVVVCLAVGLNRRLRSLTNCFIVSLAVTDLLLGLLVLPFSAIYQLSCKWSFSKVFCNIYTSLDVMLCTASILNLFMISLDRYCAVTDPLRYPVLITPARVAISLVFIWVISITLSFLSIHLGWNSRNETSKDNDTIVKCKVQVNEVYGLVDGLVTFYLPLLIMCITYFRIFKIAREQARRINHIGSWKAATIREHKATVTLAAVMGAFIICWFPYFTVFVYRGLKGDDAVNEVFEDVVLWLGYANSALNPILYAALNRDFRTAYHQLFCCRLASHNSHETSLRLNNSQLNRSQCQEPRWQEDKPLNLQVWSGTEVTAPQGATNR
Protocol: Male, partly albino, guinea pigs (600 g average weight) were killed by a blow to the head. The hearts were excised and immediately immersed in ice cold oxygenated Tyrode's solution. Both ventricles were dissected free and placed in 250 mM sucrose, 5 mM Tris, 1 mM EDTA, pH 7.45. The tissue was minced with a screen, and was then homogenized with 3 consecutive 5 sec bursts of a Polytron (Brinkman Instruments, Inc., Westbury, NY) at a setting of 11. The homogenate was then centrifuged at 1085×g for 20 min. The pellet was resuspended and recentrifuged twice. The final suspension was filtered through four layers of gauze. Adenylate cyclase was assayed by the method of Salomon et al., Anal. Biochem. (1974) 58:541 as modified by Bristow et al., Mol Pharmacol. (1982) 21:671. Enzyme protein (75-250 μg) was added to a reaction mixture that consisted of 0.1 mM Mg ATP, 0.5 mM MgCl2, 10 mM phosphocreatine, 14.5 μg of creatine kinase (1381 U/mg), 100 mM
The final reaction volume before addition of α-^32 P!ATP was 225 μl. Reaction tubes were stored in cryogenic racks (Kryorack, Isolab, Inc. Akron, OH) at 0° C.
The reaction mixture was pre-warmed in a shaking water bath at 30° C. for 5 min after which 25 μl ([…]) of α-^32 P!ATP (250-500 Ci/mM) was added to label the ATP pool. The assay time was 20 min, the time needed for measurable stimulation of adenylate cyclase. The ^32 P reaction was stopped by the addition of 750 μl of 1% sodium dodecysulfate. ^32 P-labelled cyclic AMP was then isolated by the dual Dowex-alumina column method of Salomon et al., supra. α-^32 P!ATP (New England Nuclear Corporation, Boston, MA) that gave reagent blanks of 50 cpm was purified on Dowex columns as described by Salomon et al., supra.

natural suppressor cells [5] = conditions: literature, Khan et al. 1985; listed as histamine; cited from earlier work
lymphoid cells = experiment: Effect of beta adrenergic blockade on cAMP accumulation in lymphoid cells; assay type: cell-based; conditions: 6×10^-6 M propranolol

Structure (SMILES)	Relative potency (natural suppressor cells [1]; NS cells)	Activity / potency on NS cells (in words) (natural suppressor cells [1])	Blockade of histamine mediated accumulation of cAMP (natural suppressor cells [2])	H1 activity in MLR (in words) (natural suppressor cells [3])	Activity on guinea pig myocardium (in words) [4]	also measured
CC(CCCCC(=O)Nc1ccccc1C(F)(F)F)NCCc1c[nH]cn1 (stereo not drawn) [Compound 11]	Inactive	impotent as H2 receptor agonists on NS cells	failed to block histamine mediated accumulation of cAMP	nullified both detectable H1 and H2 activity	–	Activity / potency on NS cells (in words) (natural suppressor cells [1]; listed as compound 11): nullified both detectable H1 and H2 activity
CCCCCC(C)NCCc1c[nH]cn1 (stereo not drawn) [Compound 2]	Inactive	impotent as H2 receptor agonists on NS cells	failed to block histamine mediated accumulation of cAMP	no H1 activity	completely inactive	Activity / potency on NS cells (in words) (natural suppressor cells [1]; listed as compound 2): inactive; also recorded: nor did they stimulate intracellular accumulation of cAMP
CCCCNC(=O)CCCCC(C)NCCc1c[nH]cn1 (stereo not drawn) [Compound 13]	Inactive	impotent as H2 receptor agonists on NS cells	failed to block histamine mediated accumulation of cAMP	no H1 activity	stimulated guinea pig myocardium	Activity / potency on NS cells (in words) (natural suppressor cells [1]; listed as compound 13): inactive on NS cells; also recorded: nor did they stimulate intracellular accumulation of cAMP
Cc1ccc(NC(=O)CCCC(=O)NCCc2c[nH]cn2)cc1 [Compound 4, 5-2'-(4"-Imidazo)ethylamido!glutaryl p-Toluidine]	0.4 × 10^1	very active on NS cells	–	–	inactive on the guinea pig myocardium; also recorded: little or no effect on the myocardium	Potency relative to histamine (in words) (natural suppressor cells [1]; NS cells): four times more potent than histamine; also recorded: equipotent to histamine on the lymphocyte accumulation of cyclic AMP; Antagonism by cimetidine (H2 antagonist) of cAMP accumulation (natural suppressor cells [2]): not inhibited by the H2 antagonist
NCCc1c[nH]cn1 [Histamine, 2-(4'-imidazolinyl)ethylamino]	–	–	–	–	–	Stimulation of adenylate cyclase over base levels ([4]; histamine 10^-5 M): threefold stimulation of adenylate cyclase over base levels; Effect on suppressive ability of NS cells (natural suppressor cells [5]): augmented the suppressive capacity of NS cells via H1 receptors
CC(CCCC(=O)Nc1ccc(C(F)(F)F)cc1)NCCc1c[nH]cn1 (stereo not drawn) [Compound 10]	Inactive	lost all H2 activity	–	only H1 agonistic action	no effect on the guinea pig myocardium	H1 activity in MLR (in words) (natural suppressor cells [3]; listed as compound 10): appeared to be a specific H1 receptor agonist
CCCCCC(=O)NCCc1c[nH]cn1 [Compound 3, N-Hexamido-4-2'-aminoethyl!imidazole]	Inactive	impotent as H2 receptor agonists on NS cells	failed to block histamine mediated accumulation of cAMP	no H1 activity	completely inactive	Activity / potency on NS cells (in words) (natural suppressor cells [1]; listed as compound 3): inactive; also recorded: Neither an aliphatic amide derivative of histamine (compound 3) nor the dipeptide conjugate of histamine (compound 12) altered intracellular cAMP; also recorded: nor did they stimulate intracellular accumulation of cAMP
CN/C(=N/CCSCc1nc[nH]c1C)NC#N [Cimetidine, reference compound]	–	–	–	–	–	Effect on basal activity (natural suppressor cells [2]; 10^-6 M cimetidine): did not lower the basal activity; Antagonism by cimetidine (H2 antagonist) of cAMP accumulation (natural suppressor cells [2]): competitively blocked the actions of compounds 6-8 (used at 10^-4 M) and 9 (used at 10^-7 M); Ki (natural suppressor cells [2]; lymphoid cells, read-out: Inhibition constant): 110 to 430 nM; Effect of antagonist on derivative-enhanced suppression in MLR (natural suppressor cells [3]): did not alter the derivative-enhanced suppression
COc1ccc(CN(CCN(C)C)c2ccccn2)cc1 [Mepyramine, reference compound]	–	–	–	–	–	Effect of antagonist on derivative-enhanced suppression in MLR (natural suppressor cells [3]): reversed the increase in suppressive activity of the derivative-stimulated NS cells
CC(C)NCC(O)COc1cccc2ccccc12 (stereo not drawn) [Propranolol]	–	–	–	–	–	Effect on histamine-induced intracellular accumulation of cAMP (lymphoid cells): had no effect on histamine-induced intracel accumulation of cAMP; Blockade of the effects of isoproterenol (lymphoid cells; 10^-5 M isoproterenol): completely blocked the effects of 10^-5 M isoproterenol
